We go through two molecules from patent US20160346249A1 (priority 2012, published 2016).

Series [1] in a line: Dog oral cardiovascular (radiotelemetry) study. It counts as in vivo. The protocol:
There were four male and four female dogs per group. Surgical implantation of radiotelemetry devices occurred under anesthesia approximately 1 week prior to study initiation. The test article was administered according to a Latin square design such that each radiotelemetry-implanted dog received each treatment once, with a 7-day washout period between doses. Clinical examinations and detailed physical examinations were performed, and individual body weights were recorded on dosing days.

The next series in a line: Male rat fertility study. As for the experimental part: Physical signs, body weight, and food consumption were recorded periodically. Males were housed for up to 10 nights 1:1 with untreated females following approximately 10 weeks of treatment. Mating was confirmed by daily examination of females for the presence of a vaginal copulatory plug or sperm in a vaginal lavage. The day of observing a seminal plug and/or sperm was considered GD 0. Females were euthanized on GD 15, 16, or 17 and the uterus of each female rat was examined to determine pregnancy status. Corpora lutea per female were counted. Uterine implantations were counted, and each was classified as a live fetus, dead fetus, or a resorption. At termination, the left cauda epididymis from males were weighed, and frozen. Subsequently, these tissues were prepared and analyzed for sperm number. At necropsy, a sperm suspension from the mid-region of the left vas deferens of each male was prepared and evaluated for percent motile sperm (from ≧150 cells per male).

In series [2] the target is T1, serotonin transporters (SERT) in the human brain (Homo sapiens, UniProt P31645).
T1 construct: from tissue; host or cells: brain of healthy male volunteers, in vivo PET with [11C]DASB
T1 sequence (P31645 whole entry): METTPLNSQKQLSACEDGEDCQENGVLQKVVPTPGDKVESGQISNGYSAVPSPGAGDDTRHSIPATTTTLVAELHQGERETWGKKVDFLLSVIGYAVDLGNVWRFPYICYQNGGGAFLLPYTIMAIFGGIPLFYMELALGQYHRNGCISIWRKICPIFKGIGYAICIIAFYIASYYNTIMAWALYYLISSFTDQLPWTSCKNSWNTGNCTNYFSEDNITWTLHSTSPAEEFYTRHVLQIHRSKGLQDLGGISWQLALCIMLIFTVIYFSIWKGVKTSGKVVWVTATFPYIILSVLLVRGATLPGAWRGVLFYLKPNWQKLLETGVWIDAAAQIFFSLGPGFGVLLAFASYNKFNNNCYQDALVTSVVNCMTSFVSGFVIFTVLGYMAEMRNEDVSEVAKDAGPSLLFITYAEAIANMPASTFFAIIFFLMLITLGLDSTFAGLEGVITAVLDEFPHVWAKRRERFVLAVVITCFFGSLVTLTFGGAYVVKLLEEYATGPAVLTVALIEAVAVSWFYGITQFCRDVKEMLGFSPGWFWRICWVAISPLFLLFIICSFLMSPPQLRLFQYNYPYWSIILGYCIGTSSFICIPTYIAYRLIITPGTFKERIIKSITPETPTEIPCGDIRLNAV
Description: Open label PET study with [11C]DASB (DOV 947-007). Conditions: for brain SERT occupancy: 150 mg single oral dose; for Mean (Range) SERT Occupancy, Mean / Mean (Range) SERT Occupancy, Striatum / Mean (Range) SERT Occupancy, Thalamus: EB-1010 150 mg single oral, N = 3, preliminary. Format: in vivo. From the text: With PET imaging, uptake inhibitor effects may be measured based on the proportion of SERT sites blocked in the brain. […] Safety was monitored by clinical and laboratory evaluations, including vital signs, physical examination, clinical chemistry, hematology, urinalysis, and ECG.

A further series addresses T2, human recombinant MAO-B (Homo sapiens, UniProt P27338).
T2 construct: purchased BD Biosciences, Woburn, Mass
T2 sequence (P27338 1-520): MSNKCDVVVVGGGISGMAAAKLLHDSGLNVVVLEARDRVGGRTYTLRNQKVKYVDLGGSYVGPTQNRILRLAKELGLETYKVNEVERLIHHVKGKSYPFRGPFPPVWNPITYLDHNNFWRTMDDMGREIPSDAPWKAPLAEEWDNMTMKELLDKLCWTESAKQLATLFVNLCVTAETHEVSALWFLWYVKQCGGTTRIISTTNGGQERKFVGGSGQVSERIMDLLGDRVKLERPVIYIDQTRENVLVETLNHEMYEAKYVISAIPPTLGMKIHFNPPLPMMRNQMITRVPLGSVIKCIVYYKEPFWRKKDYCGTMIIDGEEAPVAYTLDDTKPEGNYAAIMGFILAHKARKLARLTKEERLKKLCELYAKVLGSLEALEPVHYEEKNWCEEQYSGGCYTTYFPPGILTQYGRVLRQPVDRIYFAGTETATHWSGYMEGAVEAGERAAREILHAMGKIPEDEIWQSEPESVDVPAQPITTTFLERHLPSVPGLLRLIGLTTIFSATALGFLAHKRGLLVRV
Put plainly: Metabolism by recombinant MAO-B. It counts as in vitro ADME. The protocol: Incubation systems (ca. 0.2 mL) of human recombinant MAO-A (1.0 mg/mL) and MAO-B (1.0 mg/mL) (BD Biosciences, Woburn, Mass.) were prepared in triplicated 0.1 M potassium phosphate buffer (pH 7.4) (BD Biosciences, Woburn, Mass.). […] The negative samples were prepared as described above, with the exception that instead of HLM, HLmito, or recombinant enzymes, water was added to the incubation mixture.

Series [3] in a line: Brain and plasma levels of amitifadine and lactam metabolite EB-10101 in rat. Format: in vivo. Further details: metabolite plasma level (mean±SEM): unit not given here. Conditions: for metabolite plasma level (mean±SEM): amitifadine 10 mg/kg po. The protocol:
The studies are conducted in accordance with the Institutional Animal Care and Use Committee guidelines. […] At 0.5, 1, 2, and 4 hour after dosage, animals are briefly anesthetized in a chamber containing 4% isoflurane and rapidly decapitated. Trunk blood is collected in heparinized tubes (9 units/ml whole blood), immediately chilled to 4° C., centrifuged, and the plasma is frozen at −80° C. until analyzed. Brains are quickly removed, bisected along the midline, and frozen at −80° C. until analyzed.
Plasma and brain samples are allowed to thaw on ice and are homogenized in a 20 ml glass vial in two volumes of ice cold water using a handheld homogenizer (VDI 12, VWR International). Standard curves are prepared in water, control plasma, and control brain homogenate. Equal volumes (100 μl) of plasma and brain homogenate samples, distilled water and internal standard are mixed in 1.5 ml polypropylene tubes and 300 μl of acetonitrile is added to each mixture. Samples are then mixed thoroughly by placing on a shaker at 200 RPM for 40 minutes at room temperature. The samples are then centrifuged at 10,000×g for 10 minutes at 4° C. and the supernatant (200 μl) is transferred to a tube containing 2 μl of 10% formic acid. The samples are subjected to a Zorbax SBC18 Solvent Saver Plus 3.0×150 mm 3.5-μm column on a Shimadzu Prominence LC. […] The concentration of compound in the column effluent is measured using an Applied Biosystems API-3200 triple quadrupole mass spectrometer.

As for `Clc1ccc([C@]23CNC[C@H]2C3)cc1Cl` [amitifadine, (+)-1-(3,4-dichlorophenyl)-3-azabicyclo[3.1.0]hexane], the “change in QTcV interval” value in series [1] (10 mg/kg oral) is on record as under 2%. This molecule also returned an NOEL in series [1] (single oral capsule) of 10 mg/kg. For the same molecule, in the series “Male rat fertility study” (13 mg/kg/day), the “decrease in sperm count/g cauda epididymis” value was −18%; the “decreased mean body weight gain” value was 7%; the “decreases in fecundity and fertility indices” value was −9%. In the series “Male rat fertility study” (39 mg/kg/day), the “decrease in percent motile sperm” value is −33%; the “decreased mean body weight gain” value is 9%; the “decreased sperm count/g cauda epididymis” value was −44%; the “decreases in fecundity and fertility indices” value was −9%. Further, the “decreased mean food consumption” value in “Male rat fertility study” (39 mg/kg/day, first week) was −60%. For the same molecule, the “mean body weight loss” value in “Male rat fertility study” (39 mg/kg/day, initial week) was -24 g. Also, in the series “Male rat fertility study” (male, Crl:CD(SD) IGS BR, rat, in vivo, 14 weeks), the “NOEL general and reproductive toxicity” value came out at 4 mg/kg/day. Also, the “brain SERT occupancy” value in series [2] (about 2 hours) is “approximately 48%”. For the same molecule, in series [2] (about 7 hours), the “brain SERT occupancy” value was about 32%. Also, the “brain SERT occupancy” value in series [2] (about 7 hours, listed as EB-1010) is recorded as “approximately 32%”. Moreover, in series [2] (~2 h), the “Mean (Range) SERT Occupancy, Mean” value is given as 48 (43-54) %; the “Mean (Range) SERT Occupancy, Striatum” value is given as 48 (44-53) %; the “Mean (Range) SERT Occupancy, Thalamus” value is 48 (41-55) %. Further, in series [2] (~7 h), the “Mean (Range) SERT Occupancy, Mean” value is reported as 32 (23-41) %; the “Mean (Range) SERT Occupancy, Striatum” value is on record as 32 (23-37) %; the “Mean (Range) SERT Occupancy, Thalamus” value is reported as 33 (22-44) %.

As for `O=C1NCC2(c3ccc(Cl)c(Cl)c3)CC12` (stereo not drawn) [EB-10101, 5-(3,4-dichloro-phenyl)-3-aza-bicyclo[3.1.0]hexan-2-one], the “MAO-B mediation of formation” value at human recombinant MAO-B is “not MAO-B mediated”. Moreover, the “metabolite plasma level (mean±SEM)” value in series [3] (0.5 h) is listed as 1153±610; in series [3] (1 h) it was 1620±303; in series [3] (2 h), 3831±1127; in series [3] (4 h), 8896±794. Also, the Kp at 0.5 h in series [3] (male, Sprague-Dawley, rat, brain and plasma, 10 mg/kg oral, 0.5 h, read-out: brain to plasma ratio) came out at 1.1. Also, in series [3] (male, Sprague-Dawley, rat, brain and plasma, 10 mg/kg oral, 1 h, read-out: brain to plasma ratio), the Kp at 1 h was 1.3. In addition, the Kp at 2 h in series [3] (male, Sprague-Dawley, rat, brain and plasma, 10 mg/kg oral, 2 h, read-out: brain to plasma ratio) was determined as 1.4. The Kp at 4 h in series [3] (male, Sprague-Dawley, rat, brain and plasma, 10 mg/kg oral, 4 h, read-out: brain to plasma ratio) was determined as 1.7.
